What was measured:
IDO1 = biological target: T1, IDO1 (Homo sapiens, UniProt P14902); experiment: IDO enzymatic assay; type: biochemical; conditions: geometric mean; read-out: IDO1 GMean: IC50 (μM) (Biochemical Assay)
T1 construct: His tag (N); made in house; host or cells: E. coli
Method: (§1) Human IDO or TDO with N-terminal His tag is purified in E. coli. The IDO enzymatic assay is performed using 6 nM IDO and 10 μM L-Trp in the presence of 10 mM ascorbic acid, 5 μM methylene blue, 100 nM catalase and 0.01% Tween 20 in 50 mM sodium phosphate buffer (pH 6.5). 19 μL of above reaction mixture is added to wells of 384 well reaction plate containing 1 μL of various concentrations of test compound or DMSO vehicle and incubated for 20 minutes at room temperature. The TDO enzymatic reaction assay is performed using 1 nM TDO and 350 μM L-Trp in the presence of 10 mM ascorbic acid, 0.4 μM methylene blue, 100 nM catalase and 0.01% Tween 20 in 50 mM sodium phosphate buffer (pH 6.5). 19 μL of above reaction mixture is added to wells of 384 well reaction plate containing 1 μL of various concentrations of test compound or DMSO vehicle and incubated for 70 minutes at room temperature. 16 wells containing all the components of reaction mixture and 5% DMSO serve as high control. 16 well containing all the components except enzyme of reaction mixture and 5% DMSO serves as low control. Both IDO and TDO enzymatic reactions are stopped by addition of 4 μL of 30% TCA and incubated 30 minutes at 50° C. to hydrolyze N-formylkynurenine produced by IDO or TDO to kynurenine. Upon measuring the kynurenine level, the percentage inhibition is calculated at individual concentrations relative to high and low controls. The data is analyzed by using nonlinear regression to generate IC50 values.

TDO = biological target: T2, TDO (Homo sapiens, UniProt P48775); experiment: TDO enzymatic assay; conditions: geometric mean; read-out: TDO GMean: IC50 (μM) (Biochemical Assay)
T2 construct: His tag (N); made in house; host or cells: E. coli
Method: as §1

[1] = biological target: T3, IDO1-expressing HEK293 cell clones (Homo sapiens, UniProt P14902); experiment: Cell based kynurenine assay, IDO1-expressing HEK293 cell clones; conditions: HEK293 cells, 24 hours of incubation, geometric mean; read-out: HEK293 IDO1 Kynurenine GMean IC50 (μM) (Cellular Assay)
T3 construct: expressed in transfected cells; host or cells: HEK293
Method: (§2) IDO1-expressing or TDO-expressing HEK293 cell clones are generated upon stable transfection of plasmids expressing human IDO or human TDO under the control of CMV promoter. Cells are selected in DMEM media supplemented with 10% fetal bovine serum and 1 mg/ml G418 at 37° C. in a humidified incubator supplied with 5% CO2. The assays are performed as follows.
(§3) Cells were seeded in a 96 well plate in 50 μL of culture media at a density of 2.5×10^4 per well. Serial dilutions of compounds (in total volume of 50 μL culture media) are added into cells. 4 wells containing 0.2% DMSO treated cells serve as high controls and 4 wells containing media only with 0.2% DMSO serve as low controls. After 24 hours of incubation, the supernatant was transferred to a 384 well reaction plate and the kynurenine level determined. The percentage inhibition at individual concentrations relative to high and low controls is calculated. The data is analyzed by using nonlinear regression to generate IC50 values.

[2] = biological target: T4, TDO-expressing HEK293 cell clones (Homo sapiens, UniProt P48775); experiment: Cell based kynurenine assay, TDO-expressing HEK293 cell clones; conditions: HEK293 cells, 24 hours of incubation, geometric mean; read-out: HEK293 TDO Kynurenine GMean IC50 (μM) (Cellular Assay)
T4 construct: expressed in transfected cells; host or cells: HEK293
Method: as §2, §3

T1 sequence (P14902 whole entry): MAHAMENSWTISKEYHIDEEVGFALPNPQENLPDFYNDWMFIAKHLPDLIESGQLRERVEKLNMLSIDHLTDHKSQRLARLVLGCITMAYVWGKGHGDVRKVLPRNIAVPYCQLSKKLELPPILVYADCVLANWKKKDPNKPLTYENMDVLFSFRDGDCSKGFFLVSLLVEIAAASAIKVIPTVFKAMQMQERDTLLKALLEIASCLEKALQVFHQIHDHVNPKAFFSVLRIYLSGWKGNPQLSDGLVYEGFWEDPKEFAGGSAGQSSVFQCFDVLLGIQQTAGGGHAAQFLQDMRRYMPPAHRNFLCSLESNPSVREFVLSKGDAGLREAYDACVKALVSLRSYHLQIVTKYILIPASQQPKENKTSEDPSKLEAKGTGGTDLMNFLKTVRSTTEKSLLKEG
T3 sequence (P14902 whole entry): as above
T4 sequence (P48775 whole entry): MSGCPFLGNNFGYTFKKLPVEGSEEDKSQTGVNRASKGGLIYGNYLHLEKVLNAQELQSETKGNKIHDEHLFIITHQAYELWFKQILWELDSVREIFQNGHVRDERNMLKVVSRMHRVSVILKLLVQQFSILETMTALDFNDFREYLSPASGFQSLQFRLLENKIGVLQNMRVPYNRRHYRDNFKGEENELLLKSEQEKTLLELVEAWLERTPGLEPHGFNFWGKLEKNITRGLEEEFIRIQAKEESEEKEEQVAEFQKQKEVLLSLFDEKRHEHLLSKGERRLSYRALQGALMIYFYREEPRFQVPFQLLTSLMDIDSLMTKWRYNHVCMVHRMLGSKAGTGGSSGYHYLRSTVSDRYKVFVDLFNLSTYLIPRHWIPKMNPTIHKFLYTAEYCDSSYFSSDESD
T2 sequence (P48775 whole entry): as above

| Structure (SMILES) | IC50 (IDO1) | IC50 (TDO) | IC50 [1] | IC50 [2] |
| --- | --- | --- | --- | --- |
| CC(C)(C1CCN(C(=O)NCC2(O)CCC2)CC1)[C@H](O)c1cc(Cl)cc2cn[nH]c12 [Compound P-0029, (S)-4-(1-(5-chloro-1H-indazol-7-yl)-1-hydroxy-2-methylpropan-2-yl)-N-((1-hydroxycyclobutyl)methyl)piperidine-1-carboxamide] | 0.0001 to 10 µM | 0.0001 to 10 µM | 0.0001 to 10 µM | 0.0001 to 10 µM |
| CC(C)(C1CCN(C(=O)NCCC#N)CC1)[C@H](O)c1cc(Cl)cc2cn[nH]c12 [Compound P-0030, (S)-4-(1-(5-chloro-1H-indazol-7-yl)-1-hydroxy-2-methylpropan-2-yl)-N-(2-cyanoethyl)piperidine-1-carboxamide] | 0.0001 to 10 µM | 0.0001 to 10 µM | 0.0001 to 10 µM | 0.0001 to 10 µM |
| CC1(CNC(=O)N2CCC(C(C)(C)[C@H](O)c3cc(Cl)cc4cn[nH]c34)CC2)COC1 [Compound P-0031, (S)-4-(1-(5-chloro-1H-indazol-7-yl)-1-hydroxy-2-methylpropan-2-yl)-N-((3-methyloxetan-3-yl)methyl)piperidine-1-carboxamide] | 0.0001 to 10 µM | 0.0001 to 10 µM | 0.0001 to 10 µM | > 10 µM |
| CC(C)(C1CCN(C(=O)Nc2ccc(Cl)nc2)CC1)[C@H](O)c1cc(Cl)cc2cn[nH]c12 [Compound P-0032, (S)-4-(1-(5-chloro-1H-indazol-7-yl)-1-hydroxy-2-methylpropan-2-yl)-N-(6-chloropyridin-3-yl)piperidine-1-carboxamide] | 0.0001 to 10 µM | 0.0001 to 10 µM | 0.0001 to 10 µM | > 10 µM |
| N#CCC(=O)N1CCC(C(F)(F)C(=O)c2c(F)c(Cl)cc3cn[nH]c23)CC1 [Compound P-0033, 3-(4-(2-(5-chloro-6-fluoro-1H-indazol-7-yl)-1,1-difluoro-2-oxoethyl)piperidin-1-yl)-3-oxopropanenitrile] | 0.0001 to 10 µM | 0.0001 to 10 µM | 0.0001 to 10 µM | > 10 µM |
| COCC(=O)N1CCC(C(F)(F)C(=O)c2c(F)c(Cl)cc3cn[nH]c23)CC1 [Compound P-0034, 1-(5-chloro-6-fluoro-1H-indazol-7-yl)-2,2-difluoro-2-(1-(2-methoxyacetyl)piperidin-4-yl)ethan-1-one] | 0.0001 to 10 µM | 0.0001 to 10 µM | 0.0001 to 10 µM | 0.0001 to 10 µM |
| CCNC(=O)N1CCC(C(F)(F)C(=O)c2c(F)c(Cl)cc3cn[nH]c23)CC1 [Compound P-0035, 4-(2-(5-chloro-6-fluoro-1H-indazol-7-yl)-1,1-difluoro-2-oxoethyl)-N-ethylpiperidine-1-carboxamide] | 0.0001 to 10 µM | 0.0001 to 10 µM | 0.0001 to 10 µM | 0.0001 to 10 µM |
| O=C(NCC1CC1)N1CCC(C(F)(F)C(=O)c2c(F)c(Cl)cc3cn[nH]c23)CC1 [Compound P-0036, 4-(2-(5-chloro-6-fluoro-1H-indazol-7-yl)-1,1-difluoro-2-oxoethyl)-N-(cyclopropylmethyl)piperidine-1-carboxamide] | 0.0001 to 10 µM | 0.0001 to 10 µM | 0.0001 to 10 µM | 0.0001 to 10 µM |
| COCCCNC(=O)N1CCC(C(F)(F)C(=O)c2c(F)c(Cl)cc3cn[nH]c23)CC1 [Compound P-0037, 4-(2-(5-chloro-6-fluoro-1H-indazol-7-yl)-1,1-difluoro-2-oxoethyl)-N-(3-methoxypropyl)piperidine-1-carboxamide] | 0.0001 to 10 µM | 0.0001 to 10 µM | 0.0001 to 10 µM | 0.0001 to 10 µM |
| CS(=O)(=O)CCNC(=O)N1CCC(C(F)(F)C(=O)c2c(F)c(Cl)cc3cn[nH]c23)CC1 [Compound P-0038, 4-(2-(5-chloro-6-fluoro-1H-indazol-7-yl)-1,1-difluoro-2-oxoethyl)-N-(2-(methylsulfonyl)ethyl)piperidine-1-carboxamide] | 0.0001 to 10 µM | 0.0001 to 10 µM | 0.0001 to 10 µM | > 10 µM |
| O=C(NCCC(F)(F)F)N1CCC(C(F)(F)C(=O)c2c(F)c(Cl)cc3cn[nH]c23)CC1 [Compound P-0039, 4-(2-(5-chloro-6-fluoro-1H-indazol-7-yl)-1,1-difluoro-2-oxoethyl)-N-(3,3,3-trifluoropropyl)piperidine-1-carboxamide] | 0.0001 to 10 µM | 0.0001 to 10 µM | 0.0001 to 10 µM | 0.0001 to 10 µM |
| O=C(NC1CC(F)(F)C1)N1CCC(C(F)(F)C(=O)c2c(F)c(Cl)cc3cn[nH]c23)CC1 [Compound P-0040, 4-(2-(5-chloro-6-fluoro-1H-indazol-7-yl)-1,1-difluoro-2-oxoethyl)-N-(3,3-difluorocyclobutyl)piperidine-1-carboxamide] | 0.0001 to 10 µM | 0.0001 to 10 µM | 0.0001 to 10 µM | 0.0001 to 10 µM |
| O=C(NC1CCC(F)(F)CC1)N1CCC(C(F)(F)C(=O)c2c(F)c(Cl)cc3cn[nH]c23)CC1 [Compound P-0041, 4-(2-(5-chloro-6-fluoro-1H-indazol-7-yl)-1,1-difluoro-2-oxoethyl)-N-(4,4-difluorocyclohexyl)piperidine-1-carboxamide] | 0.0001 to 10 µM | 0.0001 to 10 µM | 0.0001 to 10 µM | 0.0001 to 10 µM |
| N#CCCCNC(=O)N1CCC(C(F)(F)C(=O)c2c(F)c(Cl)cc3cn[nH]c23)CC1 [Compound P-0042, 4-(2-(5-chloro-6-fluoro-1H-indazol-7-yl)-1,1-difluoro-2-oxoethyl)-N-(3-cyanopropyl)piperidine-1-carboxamide] | 0.0001 to 10 µM | 0.0001 to 10 µM | 0.0001 to 10 µM | 0.0001 to 10 µM |
| O=C(NCCCF)N1CCC(C(F)(F)C(=O)c2c(F)c(Cl)cc3cn[nH]c23)CC1 [Compound P-0043, 4-(2-(5-chloro-6-fluoro-1H-indazol-7-yl)-1,1-difluoro-2-oxoethyl)-N-(3-fluoropropyl)piperidine-1-carboxamide] | 0.0001 to 10 µM | 0.0001 to 10 µM | 0.0001 to 10 µM | > 10 µM |
| CC(C)(C1CCN(C(=O)c2cccnc2)CC1)C(O)c1cc(Cl)cc2[nH]ncc12 (stereo not shown) [Compound P-0044, (4-(1-(6-chloro-1H-indazol-4-yl)-1-hydroxy-2-methylpropan-2-yl)piperidin-1-yl)(pyridin-3-yl)methanone] | 0.0001 to 10 µM | 0.0001 to 10 µM | 0.0001 to 10 µM | 0.0001 to 10 µM |
| CCCC(=O)N1CCC(C(C)(C)C(O)c2cc(Cl)cc3[nH]ncc23)CC1 (stereo not shown) [Compound P-0045, 1-(4-(1-(6-chloro-1H-indazol-4-yl)-1-hydroxy-2-methylpropan-2-yl)piperidin-1-yl)butan-1-one] | 0.0001 to 10 µM | 0.0001 to 10 µM | 0.0001 to 10 µM | 0.0001 to 10 µM |
| CC(C)(C1CCN(C(=O)C2CC2)CC1)C(O)c1cc(Cl)cc2[nH]ncc12 (stereo not shown) [Compound P-0046, (4-(1-(6-chloro-1H-indazol-4-yl)-1-hydroxy-2-methylpropan-2-yl)piperidin-1-yl)(cyclopropyl)methanone] | 0.0001 to 10 µM | 0.0001 to 10 µM | > 10 µM | 0.0001 to 10 µM |
| CC(C)(C1CCN(C(=O)CC#N)CC1)C(O)c1cc(Cl)cc2[nH]ncc12 (stereo not shown) [Compound P-0047, 3-(4-(1-(6-chloro-1H-indazol-4-yl)-1-hydroxy-2-methylpropan-2-yl)piperidin-1-yl)-3-oxopropanenitrile] | 0.0001 to 10 µM | 0.0001 to 10 µM | 0.0001 to 10 µM | 0.0001 to 10 µM |

From patent publication US11149011B2, “Compounds and methods for IDO and TDO modulation, and indications therefor” (Plexxikon Inc., priority 2018, dated 2021)
